Test results published in PMC8011931, “Identification, Structure–Activity Relationship, and Biological Characterization of 2,3,4,5-Tetrahydro-1H-pyrido[4,3-b]indoles as a Novel Class of CFTR Potentiators” (Journal of Medicinal Chemistry, 2020).

Target: T1, CFTR (Homo sapiens, UniProt P13569)
T1 construct: primary human bronchial epithelial (HBE) cells, from non-CF individuals; endogenous in cells; host or cells: primary human bronchial epithelial cells from non-CF individuals
Assay: Short-circuit current recordings on primary HBE cells from non-CF individuals
Type: cell-based
From the text: Subsequently, the ability of compounds to elicit CFTR-mediated chloride secretion was verified on primary human bronchial epithelial (HBE) cells, from non-CF individuals, in short-circuit current experiments. In this respect, it should be noticed that potentiators are also able to stimulate wild-type CFTR, provided that a submaximal cAMP-dependent stimulation is applied.[20],[22] Accordingly, cells were stimulated with a submaximal concentration of the cAMP analogue, CPT-cAMP, followed by increasing concentrations of the potentiator hit.[20],[22]
Finally, potentiator 39 and VX-770 were further evaluated in primary HBE cells from non-CF individuals, using short-circuit current measurements, to assess the ability of compounds to maximally activate CFTR function in the presence of a submaximal cAMP stimulation. After the addition of amiloride to inhibit sodium absorption through the ENaC channel, the potentiators were added at the maximal effective concentration (1 μM) after which epithelia were stimulated with a submaximal concentration of CPT-cAMP (5 μM), followed by a maximal concentration of the cAMP analogue (100 μM) (Figure 8). We then measured the extent of CFTR-mediated chloride current elicited by submaximal cAMP stimulation in the presence of a potentiator and compared it to total CFTR-mediated chloride current, determined as the current inhibited by CFTR inhibitor-172. In parallel, other epithelia were stimulated only with the two concentrations of the cAMP analogue, in the absence of a potentiator.
Primary bronchial epithelial cells were cultured as previously described.[58] In brief, epithelial cells were cultured in a serum-free medium (LHC9 mixed with RPMI 1640, 1:1) supplemented with hormones and supplements to support cell number amplification. Then, the cells were seeded at high density on porous membranes (500,000 cells for 1 cm^2 Snapwell inserts, for Ussing chamber studies; 200,000 cells for 0.33 cm^2 Mini-Transwell inserts, for TEER/PD measurements). After 24 h, the serum-free medium was replaced with Dulbecco’s modified Eagle’s medium (DMEM)/Ham’s F12 containing 2% fetal bovine serum (FBS) plus hormones and supplements. Differentiation of cells to form a tight epithelium was monitored by measuring transepithelial electrical resistance and potential difference with an epithelial voltohmmeter (EVOM1, World Precision Instruments). […]
Differentiated bronchial epithelia on Snapwell inserts were mounted in a Ussing chamber with internal fluid circulation. […] The short-circuit current was recorded with a PowerLab 4/25 (ADInstruments) analog-to-digital converter connected to a personal computer.

T1 sequence (P13569 whole entry): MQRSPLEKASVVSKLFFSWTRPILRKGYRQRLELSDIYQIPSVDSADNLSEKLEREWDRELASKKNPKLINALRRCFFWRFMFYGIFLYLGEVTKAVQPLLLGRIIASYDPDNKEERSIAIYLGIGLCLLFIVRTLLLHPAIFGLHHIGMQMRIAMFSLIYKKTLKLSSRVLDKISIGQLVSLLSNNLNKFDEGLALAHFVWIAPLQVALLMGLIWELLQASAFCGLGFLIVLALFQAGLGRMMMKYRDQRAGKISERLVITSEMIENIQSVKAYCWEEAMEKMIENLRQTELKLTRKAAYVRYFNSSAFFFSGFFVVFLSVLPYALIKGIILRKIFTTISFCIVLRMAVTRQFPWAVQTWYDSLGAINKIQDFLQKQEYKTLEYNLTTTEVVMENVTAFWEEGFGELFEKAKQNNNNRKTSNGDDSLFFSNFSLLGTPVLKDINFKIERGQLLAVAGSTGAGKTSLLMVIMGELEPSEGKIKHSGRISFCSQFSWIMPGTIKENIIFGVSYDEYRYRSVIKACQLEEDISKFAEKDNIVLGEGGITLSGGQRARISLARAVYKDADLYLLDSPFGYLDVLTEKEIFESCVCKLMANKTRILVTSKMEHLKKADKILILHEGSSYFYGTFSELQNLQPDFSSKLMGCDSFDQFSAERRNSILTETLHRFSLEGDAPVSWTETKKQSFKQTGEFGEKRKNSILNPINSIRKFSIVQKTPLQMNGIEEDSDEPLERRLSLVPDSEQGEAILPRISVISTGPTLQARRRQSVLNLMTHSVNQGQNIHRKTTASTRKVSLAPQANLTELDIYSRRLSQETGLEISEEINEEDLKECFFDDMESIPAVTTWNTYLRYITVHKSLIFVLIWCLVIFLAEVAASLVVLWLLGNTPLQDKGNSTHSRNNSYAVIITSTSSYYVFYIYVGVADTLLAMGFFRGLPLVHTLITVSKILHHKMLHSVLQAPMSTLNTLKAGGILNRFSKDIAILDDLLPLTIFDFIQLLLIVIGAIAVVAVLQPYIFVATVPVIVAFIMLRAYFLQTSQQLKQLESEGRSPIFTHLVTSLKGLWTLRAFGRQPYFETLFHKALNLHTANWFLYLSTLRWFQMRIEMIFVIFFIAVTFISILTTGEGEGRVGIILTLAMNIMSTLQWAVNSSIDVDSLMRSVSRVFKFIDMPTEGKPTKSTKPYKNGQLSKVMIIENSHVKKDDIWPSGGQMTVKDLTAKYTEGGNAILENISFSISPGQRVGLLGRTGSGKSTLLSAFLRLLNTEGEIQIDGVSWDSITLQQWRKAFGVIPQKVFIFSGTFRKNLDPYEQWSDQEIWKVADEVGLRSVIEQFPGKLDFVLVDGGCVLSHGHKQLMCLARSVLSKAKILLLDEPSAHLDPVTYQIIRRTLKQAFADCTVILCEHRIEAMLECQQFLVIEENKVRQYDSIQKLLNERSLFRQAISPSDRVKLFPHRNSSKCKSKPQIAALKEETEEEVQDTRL

## Cc1ccc(F)c2[nH]c3c(c12)CN(C(=O)c1cc(C(F)(F)F)[nH]n1)[C@H](C)C3 [Compound 39, (R)-(6-Fluoro-3,9-dimethyl-1,3,4,5-tetrahydro-2H-pyrido[4,3-b]indol-2-yl)-(5-(trifluoromethyl)-1H-pyrazol-3-yl)methanone]
1 μM for both compounds, Figure 8B
  comparison of effectiveness of potentiators: similarly effective
Potentiator 1 μM, CPT-cAMP 5 μM, versus no potentiator
  increase of the fraction of CFTR-mediated chloride current activated by submaximal cAMP stimulation: more than 2 fold
